Drawing on patent publication US11820773B2, “Tricyclic compounds” (ALIGOS THERAPEUTICS, INC., priority 2020, dated 2023), this text covers EC50 for 16 compounds.

Structures are written as SMILES. pEC50: −log10 of the molar value. A value given as a limit tells only on which side of the number the result lay.

As a reminder, the pEC50 is the EC50 on a negative log10 scale, so that one unit is a factor of ten. Lower therefore signals a large EC50.

This experiment has as its system HBV. Put plainly: HBV-DNA antiviral assay using HepG2.117 cells (intracellular HBV DNA by qPCR). Particulars: Hepatitis B virus, 72 h, HBV DNA inhibition, 3 days incubation, 2% DMSO. In kind it is cell-based, genotype D HBV. An outline of the steps: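 Endpoints are intracellular HBV DNA by qPCR (interpolated from a gBlock standard curve) and ATP-based viability in duplicate plates. Doxycycline-free HepG2.117 Tet-off cells received compounds (9 concentrations, 4-fold steps, 2% DMSO) for 3 days. Inhibition normalised to DMSO wells; EC50/EC90/CC50 by curve fitting.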
(In general: Quantitative PCR measures a nucleic acid by following its amplification.)
Regarding `CNC(=O)c1ccc(-n2c(=O)c3c(n4ncc(CC(C)C)c24)CN(C(=O)c2ccc(Br)c(C(F)(F)F)c2)[C@H](C)C3)cc1` (stereo in doubt) [Compound 50a, N-methyl-4-[rac-(11R)-12-[4-bromo-3-(trifluoromethyl)benzoyl]-5-isobutyl-11-methyl-8-oxo-2,3,7,12-tetrazatricyclo[7.4.0.0^2,6]trideca-1(9),3,5-trien-7-yl]benzamide], the pEC50 was greater than 7.30.
Next, `CNC(=O)c1cc(-n2c(=O)c3c(n4ncc(Cc5ccccc5)c24)CN(C(=O)c2ccc(Br)c(C(F)(F)F)c2)CC3)nn1C` [Compound 29, 5-[5-benzyl-12-[4-bromo-3-(trifluoromethyl)benzoyl]-8-oxo-2,3,7,12-tetrazatricyclo[7.4.0.0^2,6]trideca-1(9),3,5-trien-7-yl]-N,2-dimethyl-pyrazole-3-carboxamide]: greater than 7.30; `CC(C)Cc1cnn2c3c(c(=O)n(-c4ccc5c(c4)nnn5C)c12)C[C@H](C)N(C(=O)c1ccc(Br)c(C(F)(F)F)c1)C3` (stereo in doubt) [Compound 95b, rac-(11S)-12-[4-bromo-3-(trifluoromethyl)benzoyl]-5-isobutyl-11-methyl-7-(1-methylbenzotriazol-5-yl)-2,3,7,12-tetrazatricyclo[7.4.0.0^2,6]trideca-1(9),3,5-trien-8-one]: 6.30 to 7.30; `C[C@@H]1Cc2c(n3ncc(Cc4ccccc4)c3n(-c3ccc(-c4nn(C)c(=O)[nH]4)cc3)c2=O)CN1C(=O)c1ccc(Br)c(C(F)(F)F)c1` (stereo in doubt) [Compound 82a, rac-(11R)-5-benzyl-12-[4-bromo-3-(trifluoromethyl)benzoyl]-11-methyl-7-[4-(1-methyl-5-oxo-4H-1,2,4-triazol-3-yl)phenyl]-2,3,7,12-tetrazatricyclo[7.4.0.0^2,6]trideca-1(9),3,5-trien-8-one]: greater than 7.30.
Next, `Cc1ccnn1-c1ccc(-n2c(=O)c3c(n4ncc(Cc5ccccc5)c24)CN(C(=O)c2ccc(Br)c(Cl)c2)CC3)cc1` [Compound 12, 5-benzyl-12-(4-bromo-3-chloro-benzoyl)-7-[4-(5-methylpyrazol-1-yl)phenyl]-2,3,7,12-tetrazatricyclo[7.4.0.0^2,6]trideca-1(9),3,5-trien-8-one]: greater than 7.30; `CC(C)Cc1cnn2c3c(c(=O)n(-c4ccc(-c5nncn5C)cc4)c12)C[C@@H](C)N(C(=O)c1ccc(Br)c(Cl)c1)C3` (stereo in doubt) [Compound 68a, rac-(11R)-12-(4-bromo-3-chloro-benzoyl)-5-isobutyl-11-methyl-7-[4-(4-methyl-1,2,4-triazol-3-yl)phenyl]-2,3,7,12-tetrazatricyclo[7.4.0.0^2,6]trideca-1(9),3,5-trien-8-one]: greater than 7.30; `CNC(=O)c1ccc(-n2c(=O)c3c(n4ncc(CC5CC(F)(F)C5)c24)CN(C(=O)c2ccc(Br)c(Cl)c2)CC3)cc1` [Compound 19, 4-[12-(4-bromo-3-chloro-benzoyl)-5-[(3,3-difluorocyclobutyl)methyl]-8-oxo-2,3,7,12-tetrazatricyclo[7.4.0.0^2,6]trideca-1(9),3,5-trien-7-yl]-N-methyl-benzamide]: 6.30 to 7.30.
For `CC(C)Cc1cnn2c3c(c(=O)n(-c4ccc(-c5cnnn5C)cc4)c12)C[C@@H](C)N(C(=O)c1ccc(Br)c(C(F)(F)F)c1)C3` (stereo in doubt) [Compound 102a, rac-(11R)-12-[4-bromo-3-(trifluoromethyl)benzoyl]-5-isobutyl-11-methyl-7-[4-(3-methyltriazol-4-yl)phenyl]-2,3,7,12-tetrazatricyclo[7.4.0.0^2,6]trideca-1(9),3,5-trien-8-one] the value was greater than 7.30; for `CNC(=O)c1ccc(-n2c(=O)c3c(n4ncc(CC5CCC5)c24)CN(C(=O)c2ccc(Br)c(C(F)(F)F)c2)[C@@H](C)C3)cc1` (stereo in doubt) [Compound 37b, N-methyl-4-[rac-(11S)-12-[4-bromo-3-(trifluoromethyl)benzoyl]-5-(cyclobutylmethyl)-11-methyl-8-oxo-2,3,7,12-tetrazatricyclo[7.4.0.0^2,6]trideca-1(9),3,5-trien-7-yl]benzamide], 6.30 to 7.30.
Compound `Cc1nnc(-c2ccc(-n3c(=O)c4c(n5ncc(Cc6ccccc6)c35)CN(C(=O)c3ccc(Br)c(Cl)c3)CC4)cc2)n1C` [Compound 31, 5-benzyl-12-(4-bromo-3-chloro-benzoyl)-7-[4-(4,5-dimethyl-1,2,4-triazol-3-yl)phenyl]-2,3,7,12-tetrazatricyclo[7.4.0.0^2,6]trideca-1(9),3,5-trien-8-one] gave a pEC50 greater than 7.30.
`CNc1nsc2cc(-n3c(=O)c4c(n5ncc(Cc6ccccc6)c35)CN(C(=O)c3ccc(Br)c(Cl)c3)CC4)ccc12` [Compound 5, 5-benzyl-12-(4-bromo-3-chloro-benzoyl)-7-[3-(methylamino)-1,2-benzothiazol-6-yl]-2,3,7,12-tetrazatricyclo[7.4.0.0^2,6]trideca-1(9),3,5-trien-8-one]: the pEC50 is greater than 7.30.
Next, `Cc1cnn(-c2ccc(-n3c(=O)c4c(n5ncc(CC(C)C)c35)CN(C(=O)c3ccc(Br)c(C(F)(F)F)c3)[C@@H](C)C4)cc2)c1` (stereo in doubt) [Compound 98b, rac-(11S)-12-[4-bromo-3-(trifluoromethyl)benzoyl]-5-isobutyl-11-methyl-7-[4-(4-methylpyrazol-1-yl)phenyl]-2,3,7,12-tetrazatricyclo[7.4.0.0^2,6]trideca-1(9),3,5-trien-8-one]: 6.30 to 7.30; `CCC[C@H]1Cc2c(n3ncc(Cc4ccccc4)c3n(-c3ccc4c(NC)n[nH]c4c3)c2=O)CN1C(=O)c1ccc(Br)c(C(F)(F)F)c1` (stereo in doubt) [Compound 88b, rac-(11S)-5-benzyl-12-[4-bromo-3-(trifluoromethyl)benzoyl]-7-[3-(methylamino)-1H-indazol-6-yl]-11-propyl-2,3,7,12-tetrazatricyclo[7.4.0.0^2,6]trideca-1(9),3,5-trien-8-one]: greater than 7.30; `Cn1nnnc1-c1ccc(-n2c(=O)c3c(n4ncc(Cc5ccccc5)c24)CN(C(=O)c2ccc(Br)c(Cl)c2)CC3)cc1` [Compound 8, 5-benzyl-12-(4-bromo-3-chloro-benzoyl)-7-[4-(1-methyltetrazol-5-yl)phenyl]-2,3,7,12-tetrazatricyclo[7.4.0.0^2,6]trideca-1(9),3,5-trien-8-one]: greater than 7.30.
For `Cc1nn[nH]c1-c1ccc(-n2c(=O)c3c(n4ncc(CC5CC5)c24)CN(C(=O)c2ccc(Br)c(C(F)(F)F)c2)[C@H](C)C3)cc1` (stereo in doubt) [Compound 75a, rac-(11R)-12-[4-bromo-3-(trifluoromethyl)benzoyl]-5-(cyclopropylmethyl)-11-methyl-7-[4-(4-methyl-1H-triazol-5-yl)phenyl]-2,3,7,12-tetrazatricyclo[7.4.0.0^2,6]trideca-1(9),3,5-trien-8-one] the value was greater than 7.30; for `Cc1nnc(-c2ccc(-n3c(=O)c4c(n5ncc(Cc6ccccc6)c35)CN(C(=O)c3ccc(Br)c(Cl)c3)CC4)cc2)[nH]1` [Compound 1, 5-benzyl-12-(4-bromo-3-chloro-benzoyl)-7-[4-(5-methyl-4H-1,2,4-triazol-3-yl)phenyl]-2,3,7,12-tetrazatricyclo[7.4.0.0^2,6]trideca-1(9),3,5-trien-8-one], greater than 7.30.
